Data from US11034650B2, “Compounds useful for treating a Mannheimia haemolytica or Histophilus somni infection” (Intervet Inc., priority 2016, dated 2021).
Values after ≈ are worked out from the molar mass of the structure shown.

Assays:
Type in all cases: cell-based
[1] = tested on: Pasteurella multocida PM 6391 (ATCC 43137, reference strain); experiment: MIC, broth-microdilution (CLSI VET01-A4), strain PM 6391; settings: Pasteurella multocida strain PM 6391, broth-microdilution; unit assumed
Experimental: For example, representative compounds were tested against ***, Mannheimia haemolytica and Pasteurella multocida, using the conventional broth-dilution assay.
The Minimum inhibitory concentrations (MIC) of compounds according to the invention for a number of veterinary bacterial pathogens were determined by the broth-microdilution method according to CLSI document VET01-A4.
Microdilution trays containing a doubling dilution series of the test compound were used for the tests. The MIC results were interpreted according to the CLSI documents VET01-S3. The lowest concentration of compound at which no visible growth (i.e. no turbidity) detected by the unaided eye was recorded as the MIC.

[2] = tested on: Mannheimia haemolytica MH 13065 (XB0446-6003.9, BRD field isolate); experiment: MIC, broth-microdilution (CLSI VET01-A4), strain MH 13065; settings: Mannheimia haemolytica strain MH 13065, broth-microdilution; unit assumed
Summary of the method: (§1)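 MIC recorded as the lowest drug level giving no growth visible to the naked eye, from two-fold serial dilutions. Interpretation followed VET01-S3.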

[3] = tested on: Mannheimia haemolytica MH 10720 (154, BRD field isolate); experiment: MIC, broth-microdilution (CLSI VET01-A4), strain MH 10720; settings: Mannheimia haemolytica strain MH 10720, broth-microdilution; unit assumed
Summary of the method: as §1

[4] = tested on: Mannheimia haemolytica MH 6357 (M7/2, reference strain, cattle infection strain); experiment: MIC, broth-microdilution (CLSI VET01-A4), strain MH 6357; settings: Mannheimia haemolytica strain MH 6357, broth-microdilution; unit assumed
Summary of the method: as §1

[5] = tested on: Mannheimia haemolytica MH 12587 (1071, BRD field isolate, macrolide-resistance: erm+, E+); experiment: MIC, broth-microdilution (CLSI VET01-A4), strain MH 12587; settings: Mannheimia haemolytica strain MH 12587, broth-microdilution; unit assumed
Summary of the method: as §1

[6] = tested on: Mannheimia haemolytica MH 13093 (XB0472-6014.1, BRD field isolate); experiment: MIC, broth-microdilution (CLSI VET01-A4), strain MH 13093; settings: Mannheimia haemolytica strain MH 13093, broth-microdilution; unit assumed
Summary of the method: as §1

[7] = tested on: Pasteurella multocida PM 6267 (P 2225 (L386), reference strain, mouse infection strain); experiment: MIC, broth-microdilution (CLSI VET01-A4), strain PM 6267; settings: Pasteurella multocida strain PM 6267, broth-microdilution; unit assumed
Summary of the method: as §1

[8] = tested on: Mannheimia haemolytica MH 6374 (ATCC 33396, reference strain); experiment: MIC, broth-microdilution (CLSI VET01-A4), strain MH 6374; settings: Mannheimia haemolytica strain MH 6374, broth-microdilution; unit assumed
Summary of the method: as §1

[9] = tested on: Pasteurella multocida PM 12080 (IV102277-0093, BRD field isolate); experiment: MIC, broth-microdilution (CLSI VET01-A4), strain PM 12080; settings: Pasteurella multocida strain PM 12080, broth-microdilution; unit assumed
Summary of the method: as §1

[10] = tested on: Pasteurella multocida PM 10775 (080130003051, BRD field isolate); experiment: MIC, broth-microdilution (CLSI VET01-A4), strain PM 10775; settings: Pasteurella multocida strain PM 10775, broth-microdilution; unit assumed
Summary of the method: as §1

| Compound | MIC PM 6391 [1] | MIC MH 13065 [2] | MIC MH 10720 [3] | MIC MH 6357 [4] | MIC MH 12587 [5] | MIC MH 13093 [6] | MIC PM 6267 [7] | MIC MH 6374 [8] | MIC PM 12080 [9] | MIC PM 10775 [10] |
| --- | --- | --- | --- | --- | --- | --- | --- | --- | --- | --- |
| O=C(N[C@@H](CO)C(=O)NO)c1ccc(C#Cc2ccc(CNCc3cccs3)cc2)cc1 [Compound 160] | 0.4 µg/mL (≈ 0.89 µM) | 1.6 µg/mL (≈ 3.56 µM) | 0.4 µg/mL (≈ 0.89 µM) | 0.8 µg/mL (≈ 1.78 µM) | 3.1 µg/mL (≈ 6.9 µM) | 3.1 µg/mL (≈ 6.9 µM) | ≤ 0.1 µg/mL | 0.8 µg/mL (≈ 1.78 µM) | 0.2 µg/mL (≈ 0.445 µM) | ≤ 0.1 µg/mL |
| CC(C)(O)[C@H](NC(=O)c1ccc(C#Cc2ccc(CNCc3nccs3)nc2)cc1)C(=O)NO [Compound 362] | 0.4 µg/mL (≈ 0.834 µM) | 1.6 µg/mL (≈ 3.34 µM) | 0.4 µg/mL (≈ 0.834 µM) | 3.1 µg/mL (≈ 6.46 µM) | 3.1 µg/mL (≈ 6.46 µM) | 3.1 µg/mL (≈ 6.46 µM) | 0.2 µg/mL (≈ 0.417 µM) | 0.8 µg/mL (≈ 1.67 µM) | 0.2 µg/mL (≈ 0.417 µM) | ≤ 0.1 µg/mL |
| CC(C)(C(NC(=O)c1ccc(C#Cc2ccc(CNCc3ccc(Cl)cc3)cc2)cc1)C(=O)NO)[N+](=O)[O-] (centres unmarked) [Compound 277] | 0.8 µg/mL (≈ 1.5 µM) | 1.6 µg/mL (≈ 2.99 µM) | 0.4 µg/mL (≈ 0.748 µM) | 1.6 µg/mL (≈ 2.99 µM) | 3.1 µg/mL (≈ 5.79 µM) | 1.6 µg/mL (≈ 2.99 µM) | 0.4 µg/mL (≈ 0.748 µM) | 1.6 µg/mL (≈ 2.99 µM) | 0.4 µg/mL (≈ 0.748 µM) | ≤ 0.1 µg/mL |
| CC(C)([C@H](NC(=O)c1ccc(C#Cc2ccc(CNCc3ncccn3)nc2)cc1)C(=O)NO)S(C)(=O)=O [Compound 356] | 3.1 µg/mL (≈ 5.78 µM) | 6.3 µg/mL (≈ 11.7 µM) | 3.1 µg/mL (≈ 5.78 µM) | 6.3 µg/mL (≈ 11.7 µM) | 12.5 µg/mL (≈ 23.3 µM) | 12.5 µg/mL (≈ 23.3 µM) | 6.3 µg/mL (≈ 11.7 µM) | 6.3 µg/mL (≈ 11.7 µM) | 1.6 µg/mL (≈ 2.98 µM) | 0.2 µg/mL (≈ 0.373 µM) |
| N#CCNCc1ccc(C#Cc2ccc(C(=O)N[C@@H](CO)C(=O)NO)cc2)cc1 [Compound 216] | 0.2 µg/mL (≈ 0.51 µM) | 1.6 µg/mL (≈ 4.08 µM) | 0.8 µg/mL (≈ 2.04 µM) | 1.6 µg/mL (≈ 4.08 µM) | 3.1 µg/mL (≈ 7.9 µM) | 3.1 µg/mL (≈ 7.9 µM) | ≤ 0.1 µg/mL | 3.1 µg/mL (≈ 7.9 µM) | 0.2 µg/mL (≈ 0.51 µM) | ≤ 0.1 µg/mL |
| C=CCNCc1ccc(C#Cc2ccc(C(=O)N[C@H](C(=O)NO)C(C)(C)S(C)(=O)=O)cc2)cc1 [C.256] | ≤ 0.1 µg/mL | 0.8 µg/mL (≈ 1.65 µM) | ≤ 0.1 µg/mL | 1.6 µg/mL (≈ 3.31 µM) | 1.6 µg/mL (≈ 3.31 µM) | 0.8 µg/mL (≈ 1.65 µM) | ≤ 0.1 µg/mL | 0.8 µg/mL (≈ 1.65 µM) | ≤ 0.1 µg/mL | ≤ 0.1 µg/mL |
| CC(C)(O)[C@H](NC(=O)c1ccc(C#Cc2ccc(CNCC(F)(F)F)nc2)cc1)C(=O)NO [Compound 333] | 0.4 µg/mL (≈ 0.861 µM) | 0.8 µg/mL (≈ 1.72 µM) | ≤ 0.1 µg/mL | 0.4 µg/mL (≈ 0.861 µM) | 1.6 µg/mL (≈ 3.44 µM) | 1.6 µg/mL (≈ 3.44 µM) | 0.4 µg/mL (≈ 0.861 µM) | 0.8 µg/mL (≈ 1.72 µM) | 0.2 µg/mL (≈ 0.431 µM) | ≤ 0.1 µg/mL |
| CSC(C)(C)[C@H](NC(=O)c1ccc(C#Cc2ccc(CNC3CC3)nc2)cc1)C(=O)NO [Compound 335] | 0.4 µg/mL (≈ 0.884 µM) | 0.4 µg/mL (≈ 0.884 µM) | ≤ 0.1 µg/mL | 0.4 µg/mL (≈ 0.884 µM) | 3.1 µg/mL (≈ 6.85 µM) | 0.8 µg/mL (≈ 1.77 µM) | 0.4 µg/mL (≈ 0.884 µM) | 0.8 µg/mL (≈ 1.77 µM) | 0.2 µg/mL (≈ 0.442 µM) | ≤ 0.1 µg/mL |
| CC1CN(Cc2ccc(C#Cc3ccc(C(=O)N[C@H](C(=O)NO)C(C)C)cc3)cc2)CC(C)O1 (some centres unmarked) [Compound 165] | 0.2 µg/mL (≈ 0.431 µM) | 12.5 µg/mL (≈ 27 µM) | 3.1 µg/mL (≈ 6.69 µM) | 6.3 µg/mL (≈ 13.6 µM) | 25 µg/mL (≈ 53.9 µM) | 12.5 µg/mL (≈ 27 µM) | ≤ 0.1 µg/mL | 12.5 µg/mL (≈ 27 µM) | ≤ 0.1 µg/mL | ≤ 0.1 µg/mL |
| CC[C@H](C)[C@H](NC(=O)c1ccc(C#Cc2ccc(CNC(C)C)cc2)cc1)C(=O)NO [Compound 141] | 3.1 µg/mL (≈ 7.35 µM) | 6.3 µg/mL (≈ 14.9 µM) | 1.6 µg/mL (≈ 3.8 µM) | 6.3 µg/mL (≈ 14.9 µM) | 12.5 µg/mL (≈ 29.7 µM) | 12.5 µg/mL (≈ 29.7 µM) | 1.6 µg/mL (≈ 3.8 µM) | 12.5 µg/mL (≈ 29.7 µM) | 3.1 µg/mL (≈ 7.35 µM) | 0.2 µg/mL (≈ 0.474 µM) |
| CCCNCc1ccc(C#Cc2ccc(C(=O)N[C@@H](CO)C(=O)NO)cc2)cc1 [Compound 152] | 6.3 µg/mL (≈ 15.9 µM) | 12.5 µg/mL (≈ 31.6 µM) | 3.1 µg/mL (≈ 7.84 µM) | 3.1 µg/mL (≈ 7.84 µM) | 12.5 µg/mL (≈ 31.6 µM) | 12.5 µg/mL (≈ 31.6 µM) | 1.6 µg/mL (≈ 4.05 µM) | 25 µg/mL (≈ 63.2 µM) | 3.1 µg/mL (≈ 7.84 µM) | 0.2 µg/mL (≈ 0.506 µM) |
